Source: patent US20020155192A1, “Yeast transport isoforms” (priority 2000, published 2002)
Where two headings read alike, the source gives them in different places.

Assays:
Assay type in all cases: biochemical
[1] = molecular target: T1, Odc1p (Saccharomyces cerevisiae, UniProt Q03028); assay: Kinetic constants (Km, Vmax, Ki) of recombinant purified Odc1p in proteoliposomes; details: for Ki: Lineweaver-Burk plots, 0.1-2.0 mM [14C]oxoglutarate, means ±S.D., read-out: Ki (competition with [14C]oxoglutarate uptake)
T1 construct: made in house; host or cells: S. cerevisiae odc1Δodc2Δ (YPH499 background) carrying pYES2-based pODC1; purified from mitochondria on Ni-NTA agarose
T1 sequence (Q03028 1-310): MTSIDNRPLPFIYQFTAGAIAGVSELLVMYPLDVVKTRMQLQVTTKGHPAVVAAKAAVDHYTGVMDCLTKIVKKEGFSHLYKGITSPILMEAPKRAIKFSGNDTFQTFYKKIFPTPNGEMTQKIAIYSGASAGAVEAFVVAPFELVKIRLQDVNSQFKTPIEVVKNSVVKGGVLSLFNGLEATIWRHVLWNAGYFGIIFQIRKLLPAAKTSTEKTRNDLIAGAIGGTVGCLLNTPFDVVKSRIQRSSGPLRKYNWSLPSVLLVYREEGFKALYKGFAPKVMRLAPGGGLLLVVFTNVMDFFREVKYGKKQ
Description: (§1) External substrate was removed from proteoliposomes on a Sephadex G-75 column preequilibrated with buffer F (50 mM NaCl and 10 mM PIPES, pH 7.0). Transport at 25° C. was started by adding [^14C]oxoglutarate (unless otherwise indicated) to the proteoliposomes, and terminated by addition of 30 mM pyridoxal 5′-phosphate and 10 mM bathophenanthroline (the “inhibitor-stop” method (13)). In controls, inhibitors were added with the labelled substrate. The external radioactivity was removed on Sephadex G-75 and the internal radioactivity was measured. […] The initial rate of transport was calculated in mmol/min per g protein from the time course of isotope equilibration (13). Various other transport activities were also assayed by the inhibitor-stop method. For efflux measurements, the internal substrate pool of the proteoliposomes was made radioactive by carrier-mediated exchange equilibration (13) with 0.1 mM [^14C]oxoglutarate added at high specific radioactivity. After 60 min, the residual external radioactivity was removed by passing the proteoliposomes again through a column of Sephadex G-75. Efflux was started by adding unlabelled external substrate or buffer F alone and terminated by adding the inhibitors indicated above.
(§2) The kinetic constants of the recombinant purified Odc1p and Odc2p were determined by measuring the initial transport rate at various external [^14C]oxoglutarate concentrations, in the presence of a constant saturating internal concentration of 20 mM oxoglutarate.
(§3) The values were calculated from Lineweaver-Burk plots of the rate of [^14C]oxoglutarate versus substrate concentrations. The competing substrates at appropriate constant concentrations were added together with 0.1-2.0 mM [^14C]oxoglutarate to proteoliposomes containing 20 mM oxoglutarate and reconstituted with recombinant Odc1p or Odc2p. The data represent the means ±S.D. of at least three different experiments. n.d., not determined.

[2] = molecular target: T1, Odc1p; assay: Dependence on internal substrate of [14C]oxoglutarate uptake into proteoliposomes reconstituted with recombinant Odc1p; details: for [14C]oxoglutarate transport: proteoliposomes preloaded with 20 mM internal substrate, 0.6 mM [14C]oxoglutarate, 45 seconds
Description: (§4) Reconstitution of the ODC proteins into liposomes—Purified ODC proteins were reconstituted by cyclic removal of the detergent with a hydrophobic column (13). The composition of the initial mixture used for reconstitution was: 200 μl of purified isoform (0.3-0.4 μg of protein), 70 μl of 10% Triton X-114, 100 μl of 10% phospholipids in the form of sonicated liposomes, 20 mM oxoglutarate (except where otherwise indicated), 10 mM Pipes (pH 7.0), 0.7 mg of cardiolipin (Sigma) and water to a final volume of 700 μl. These components were mixed thoroughly, and the mixture was recycled 13 times through an Amberlite column (Supelco) (3.0 cm×0.5 cm) preequilibrated with a buffer containing 10 mM Pipes (pH 7.0) and with the substrate at the same concentration as in the starting mixture. All operations were performed at 4° C., except the passages through Amberlite, which were carried out at room temperature.
as §1
(§5) The substrate specificity of purified Odc1p and Odc2p was investigated further by measuring the uptake of [^14C]oxoglutarate into proteoliposomes which had been preloaded with various substrates.
(§6) Proteoliposomes were preloaded internally with various substrates (concentration, 20 mM). Transport was started by adding [^14C]oxoglutarate (final concentration, 0.6 mM) and terminated after 45 seconds.

[3] = molecular target: T2, Odc2p (Saccharomyces cerevisiae, UniProt Q99297); assay: Kinetic constants (Km, Vmax, Ki) of recombinant purified Odc2p in proteoliposomes
T2 construct: made in house; host or cells: S. cerevisiae odc1Δodc2Δ (YPH499 background) carrying pYES2-based pODC2; purified from mitochondria on Ni-NTA agarose
T2 sequence (Q99297 1-307): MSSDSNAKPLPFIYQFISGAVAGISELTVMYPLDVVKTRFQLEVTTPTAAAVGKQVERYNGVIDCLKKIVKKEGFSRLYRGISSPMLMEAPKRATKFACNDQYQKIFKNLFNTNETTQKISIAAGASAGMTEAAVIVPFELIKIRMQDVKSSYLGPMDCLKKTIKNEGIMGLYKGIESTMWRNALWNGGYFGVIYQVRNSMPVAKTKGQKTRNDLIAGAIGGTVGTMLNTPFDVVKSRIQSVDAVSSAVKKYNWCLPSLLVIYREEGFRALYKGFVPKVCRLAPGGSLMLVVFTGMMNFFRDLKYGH
Description: as §1, §2, §3

[4] = molecular target: T2, Odc2p; assay: Effect of inhibitors and external compounds on the [14C]oxoglutarate/oxoglutarate exchange by proteoliposomes reconstituted with Odc2p; details: Odc2p, data not shown
Description: as §4, §1
(§7) In addition, the ability of non-radioactive potential substrates to inhibit the oxoglutarate/oxoglutarate exchange was examined.
Proteoliposomes were preloaded internally with 20 mM oxoglutarate and transport was initiated by the addition of 0.4 mM [^14C]oxoglutarate. The incubation time was 45 seconds. Thiol reagents and α-cyanocinnamate were added 2 min before the labelled substrate; the other inhibitors and external substrates were added together with [^14C]oxoglutarate. The final concentration of the inhibitors was 4 mM, except for mercurials (10 μM), carboxyatractyloside (0.1 mM), N-ethylmaleimide and α-cyanocinnamate (2 mM).

[5] = molecular target: T2, Odc2p; assay: Dependence on internal substrate of [14C]oxoglutarate uptake into proteoliposomes reconstituted with recombinant Odc2p
Description: as §4, §1, §5, §6

[6] = molecular target: T1, Odc1p; assay: Effect of inhibitors and external compounds on the [14C]oxoglutarate/oxoglutarate exchange by proteoliposomes reconstituted with Odc1p; details: Odc1p; for effect of non-radioactive potential substrates on the rate of oxoglutarate uptake (in words): added with 0.4 mM [14C]oxoglutarate, 4.0 mM in FIG. 5, partly data not shown
Description: FIG. 5. Effect of dicarboxylates and 2-oxodicarboxylates with different carbon chain length on the rate of [^14C]oxoglutarate uptake into proteoliposomes reconstituted with recombinant Odc1p. Proteoliposomes were preloaded with 20 mM oxoglutarate and reconstituted with recombinant Odc1p. Transport was initiated by the addition of 0.4 mM [^14C]oxoglutarate and terminated after 45 seconds. Oxalate, malonate, succinate, glutarate, adipate, pimelate, suberate (▪) and the corresponding 2-oxoacids (●) were added simultaneously with [1^4C]oxoglutarate at 4.0 mM concentration.
as §4, §1, §7
Proteoliposomes were preloaded internally with 20 mM oxoglutarate and transport was initiated by the addition of 0.4 mM [^14C]oxoglutarate.

[7] = molecular target: T1, Odc1p; assay: Homoexchange of other substrates in proteoliposomes reconstituted with Odc1p; details: internal concentration 10 mM, external concentration 1 mM
Description: as §1
(§8) In order to obtain further information about the mechanism of transport catalyzed by Odc1p and Odc2p, the efflux of [^14C]oxoglutarate from pre-labelled active proteoliposomes was investigated as it provides a more convenient assay for unidirectional transport (13).

[8] = molecular target: T2, Odc2p; assay: Homoexchange of other substrates in proteoliposomes reconstituted with Odc2p; details: internal concentration 10 mM, external concentration 1 mM
Description: as §1, §8

[9] = read-out: transport affinity (Km) for the oxoglutarate/oxoglutarate exchange
[10] = Odc1p, proteoliposomes preloaded with various substrates
[11] = Odc2p, proteoliposomes preloaded with various substrates
[12] = Odc1p, 20 mM internal oxoglutarate

Compound: O=C(O)CCC(=O)C(=O)O [2-Oxoglutarate]
- specific activity (Vmax) for the oxoglutarate/oxoglutarate exchange ([1]; Odc1p, 25° C., 20 mM internal oxoglutarate, 24 experiments): 252±53 mmol/min per g protein
- Km [1, 9]: 520 ± 80 µM
- [14C]oxoglutarate transport ([2]; Odc1p): 112.5 mmol/min per g protein
- [14C]oxoglutarate uptake with the internal substrate (in words) [2, 10]: taken up efficiently
- specific activity (Vmax) for the oxoglutarate/oxoglutarate exchange ([3]; Odc2p, 25° C., 20 mM internal oxoglutarate, 16 experiments): 73±17 mmol/min per g protein
- Km [3, 9]: 470 ± 70 µM

Compound: CC(C)CC(=O)C(=O)O [2-oxoisocaproate]
- [14C]oxoglutarate uptake with the internal substrate (in words) [2, 10]: no exchange
- effect of oxomonocarboxylates on the rate of uptake of 0.4 mM oxoglutarate (in words) ([4]; 8 mM, 20 times greater than the substrate): did not influence
- [14C]oxoglutarate uptake with the internal substrate (in words) [5, 11]: no exchange
- effect of oxomonocarboxylates on the rate of uptake of 0.4 mM oxoglutarate (in words) ([6]; 8 mM, 20 times greater than the substrate, data not shown): did not influence
- homoexchange catalyzed by the proteoliposomes (in words) [7]: did not catalyze homoexchanges
- homoexchange catalyzed by the proteoliposomes (in words) [8]: did not catalyze homoexchanges

Compound: Nc1ncnc2c1ncn2[C@@H]1O[C@H](COP(=O)(O)OP(=O)(O)O)[C@@H](O)[C@H]1O [ADP]
- [14C]oxoglutarate uptake with the internal substrate (in words) [2, 10]: no exchange
- [14C]oxoglutarate uptake with the internal substrate (in words) [5, 11]: no exchange
- homoexchange catalyzed by the proteoliposomes (in words) [7]: did not catalyze homoexchanges
- homoexchange catalyzed by the proteoliposomes (in words) [8]: did not catalyze homoexchanges

Compound: O=C(O)CC(=O)C(=O)O [Oxaloacetate]
- Ki [1, 12]: > 15 mM
- Ki ([3]; Odc2p, Lineweaver-Burk plots, 0.1-2.0 mM [14C]oxoglutarate, 20 mM internal oxoglutarate, means ±S.D., read-out: Ki (competition with [14C]oxoglutarate uptake)): > 15 mM

Compound: O=C(O)CCC(=O)O [Succinate]
- Ki [1, 12]: > 15 mM
- [14C]oxoglutarate transport ([2]; Odc1p): 19.1 mmol/min per g protein
- [14C]oxoglutarate uptake with the internal substrate (in words) [2, 10]: much lower activity
- effect of non-radioactive potential substrates on the rate of oxoglutarate uptake (in words) [4]: virtually no effect
- [14C]oxoglutarate transport ([5]; Odc2p, proteoliposomes preloaded with 20 mM internal substrate, 0.6 mM [14C]oxoglutarate, 45 seconds): 4.3 mmol/min per g protein
- [14C]oxoglutarate uptake with the internal substrate (in words) [5, 11]: much lower activity
- effect of non-radioactive potential substrates on the rate of oxoglutarate uptake (in words) [6]: virtually no effect

Compound: C[N+](C)(C)CC(O)CC(=O)[O-] (centres unmarked) [carnitine]
- [14C]oxoglutarate uptake with the internal substrate (in words) [2, 10]: no exchange
- [14C]oxoglutarate uptake with the internal substrate (in words) [5, 11]: no exchange
- homoexchange catalyzed by the proteoliposomes (in words) [7]: did not catalyze homoexchanges
- homoexchange catalyzed by the proteoliposomes (in words) [8]: did not catalyze homoexchanges

Compound: N[C@@H](CCC(=O)O)C(=O)O [glutamate]
- [14C]oxoglutarate uptake with the internal substrate (in words) [2, 10]: no exchange
- [14C]oxoglutarate uptake with the internal substrate (in words) [5, 11]: no exchange
- homoexchange catalyzed by the proteoliposomes (in words) [7]: did not catalyze homoexchanges
- homoexchange catalyzed by the proteoliposomes (in words) [8]: did not catalyze homoexchanges

Compound: NC(=O)CC[C@H](N)C(=O)O [glutamine]
- [14C]oxoglutarate uptake with the internal substrate (in words) [2, 10]: no exchange
- effect of non-radioactive potential substrates on the rate of oxoglutarate uptake (in words) [4]: no effect
- [14C]oxoglutarate uptake with the internal substrate (in words) [5, 11]: no exchange
- effect of non-radioactive potential substrates on the rate of oxoglutarate uptake (in words) [6]: no effect
- homoexchange catalyzed by the proteoliposomes (in words) [7]: did not catalyze homoexchanges
- homoexchange catalyzed by the proteoliposomes (in words) [8]: did not catalyze homoexchanges

Compound: NCCC[C@H](N)C(=O)O [ornithine]
- homoexchange catalyzed by the proteoliposomes (in words) [7]: did not catalyze homoexchanges
- homoexchange catalyzed by the proteoliposomes (in words) [8]: did not catalyze homoexchanges

Compound: O=C(O)C(=O)O [oxalate]
- [14C]oxoglutarate uptake with the internal substrate (in words) [2, 10]: no exchange
- effect of non-radioactive potential substrates on the rate of oxoglutarate uptake (in words) [4]: virtually no effect
- [14C]oxoglutarate uptake with the internal substrate (in words) [5, 11]: no exchange
- effect of non-radioactive potential substrates on the rate of oxoglutarate uptake (in words) [6]: virtually no effect

Compound: O=S(=O)(O)O [sulfate]
- [14C]oxoglutarate uptake with the internal substrate (in words) [2]: no exchange
- [14C]oxoglutarate uptake with the internal substrate (in words) [5]: no exchange
- homoexchange catalyzed by the proteoliposomes (in words) [7]: did not catalyze homoexchanges
- homoexchange catalyzed by the proteoliposomes (in words) [8]: did not catalyze homoexchanges

Compound: phosphate
- [14C]oxoglutarate uptake with the internal substrate (in words) [2, 10]: no exchange
- [14C]oxoglutarate uptake with the internal substrate (in words) [5, 11]: no exchange
- homoexchange catalyzed by the proteoliposomes (in words) [7]: did not catalyze homoexchanges
- homoexchange catalyzed by the proteoliposomes (in words) [8]: did not catalyze homoexchanges
